The target in test [1] is PP1 with peptides containing an RVxF sequence (Homo sapiens, UniProt P62136). Conditions: in vitro; Ammosova et al. 2012, 2014; cited from earlier work.
The target of test [2] is PP1 (Homo sapiens, UniProt P62136). As to conditions: SPR; Lin et al. 2017; read-out: KD of binding to PP1; cited from earlier work. In general terms: In SPR one partner is held on a chip, and binding of the other changes the refractive index at the surface.
The test system of test [3] is CMV IE1, IE2 and UL32 mRNA. Put plainly: Viral mRNA expression by RT-qPCR in infected human foreskin fibroblasts. Conditions: fold-change compared to infected cells treated with vehicle only, FIG. 5C. Type of test: cell-based, human cytomegalovirus.
The test system of test [4] is CMV. As to the kind of experiment: Plaque assay of human foreskin fibroblasts infected with CMV. In kind it is cell-based, human cytomegalovirus. Conditions: percentage compared to untreated control, FIG. 5A.
Test [5] deals with T1, PP1-cdNIPP1 RATA interaction (Homo sapiens, UniProt P62136).
T1 construct: NanoBiT large bit (LgBiT)
T1 sequence (P62136 whole entry): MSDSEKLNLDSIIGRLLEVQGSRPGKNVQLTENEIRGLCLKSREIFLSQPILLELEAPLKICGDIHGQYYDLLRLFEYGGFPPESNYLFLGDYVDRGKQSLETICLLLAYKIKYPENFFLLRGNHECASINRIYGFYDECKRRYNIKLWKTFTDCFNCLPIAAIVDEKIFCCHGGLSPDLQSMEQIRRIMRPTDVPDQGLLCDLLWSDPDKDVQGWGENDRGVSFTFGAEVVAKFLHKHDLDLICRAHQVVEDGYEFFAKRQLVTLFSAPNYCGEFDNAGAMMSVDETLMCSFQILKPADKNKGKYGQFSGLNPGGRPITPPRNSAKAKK
Put plainly: Split NanoBit protein:protein interaction assay, WT PP1 with RVxF-mutant cdNIPP1. Type of test: binding. As to conditions: FIG. 4B, cdNIPP1 with RVxF mutation.

The target in test [6] is T2, PP1-cdNIPP1 interaction (Homo sapiens, UniProt P62136).
T2 construct: NanoBiT large bit (LgBiT)
T2 sequence (P62136 whole entry): as above
As to the kind of experiment: Split NanoBit protein:protein interaction assay, WT PP1 with WT cdNIPP1. Type of test: binding. As to conditions: FIG. 4B.

Test [7] deals with CMV immediate early proteins. Put plainly: Expression of CMV immediate early proteins in infected cells. As to conditions: FIG. 5B. In kind it is cell-based, human cytomegalovirus.

Molecules are shown by their SMILES.

PP1 with peptides containing an RVxF sequence, sequence (P62136 whole entry): as above
PP1, sequence (P62136 whole entry): as above

What is called Kd is the free concentration of one partner at which half of the binding sites on the other are occupied at equilibrium, for simple one-to-one binding. Turning to `CCNC(=O)NC(=O)C(C)OC(=O)c1c2c(nc3ccccc13)/C(=C/c1ccc(OC)c(OC)c1)CC2` (stereo not shown) [1E7-03], the “Interaction of PP1 with peptides containing an RVxF sequence” value in test [1] is given as “disrupted the interaction of PP1 with peptides containing an RVxF sequence”. Also, the Kd in test [2] is 6.2 µM. Besides, in test [3], the “Viral mRNA expression (IE1, IE2, UL32)” value was “no effect on viral transcription”. Moreover, in test [4], the “Inhibition of CMV replication” value is on record as “concentration-dependent inhibition of CMV replication”. In test [5], the “Effect on PP1-cdNIPP1 RATA interaction” value was “did not have an effect”. In addition, in test [6], the “Effect on PP1-cdNIPP1 interaction” value is listed as “inhibited the PP1-cdNIPP1 interaction”. The “Expression of CMV immediate early proteins” value in test [7] is given as “reduced”.

These data come from patent US20240082235A1, “METHOD FOR TREATING OR INHIBITING CYTOMEGALOVIRUS INFECTION USING SMALL MOLECULES TARGETING PROTEIN PHOSPHATASE 1” (HOWARD UNIVERSITY, priority 2020, published 2024).
